The values below come from US12497614B2, “Compositions and methods for editing beta-globin for treatment of hemaglobinopathies” (Vertex Pharmaceuticals Incorporated, priority 2020, dated 2025).

Assay [1] in a line: Engraftment and persistence of gene-editing after in vivo administration of CD34+ HSPCs edited with T107 RNP, AAV.310 and Compound 984 (Example 14). Also noted: species or system mouse. Conditions: T107 RNP+AAV.310 in the presence of Compound 984 (3 μM). Here is the method:
(§1) The cells were electroporated and immediately plated in medium only or medium containing Compound 984 at 3 μM. […] Genomic DNA was harvested from edited cells and used to evaluate HDR efficiency by […] as described in Example 1.
(§2) Following two days of in vitro culture, HSPCs were administered by intravenous injection to NBSGW mice at a dose of 0.5×10^6 cells per mouse. Recipient mice were treated with sublethal irradiation (100 cGy) at 1 day prior to administration of HSPCs. […] In total three independent replicates of the study were performed.
(§3) Bone marrow and peripheral blood was extracted at 16 weeks following HSPC administration and evaluated for presence of human hematopoietic cells using flow cytometry as described in Example 2. The percent chimerism (percentage of human CD45+ cells relative total cells expressing human CD45 or mouse CD45) in mouse bone marrow and peripheral blood is respectively shown in FIGS. 14A-14B.
(§4) Additionally, the lineage of human CD45+ cells was determined using markers for human B cells, T cells, myeloid cells, and HSPCs as described in Example 2.
(§5) The long term persistence of edits in the HBB gene present in HSPCs administered to each mouse cohorts was evaluated in genomic DNA extracted from bone marrow collected at 16 weeks. The frequency of donor template-encoded gene-edits in the HBB gene incorporated by HDR was quantified by NGS and is shown in FIG. 14D. […]

Another assay deals with NBSGW mice. Described as above. Conditions: 16 weeks; T107 RNP+AAV.310 in the presence of Compound 984. Further details: species or system mouse. Here is the method: as §1, §2, §3, §4, §5
Assay [2] deals with HBB gene locus and mRNA transcribed from HBB in CD34+ HSPCs. Description: Editing efficiency in genomic DNA and in HBB mRNA (Example 5). Type of assay: cell-based, human. Conditions: genomic DNA, 48 hours post electroporation; 1 μM or 3 μM. Here is the method: At 48 hours post electroporation genomic DNA was isolated from the edited cells and HDR to introduce the sickle mutation and INDEL frequencies were evaluated using next gene sequencing and computational analysis. On day 10 of differentiation, incorporation of the SCD mutation and frequency of INDELs present in mRNA transcribed from the HBB gene locus of edited cells was determined using RNA amplicon sequencing.

The subject of the next assay is CD34+ HSPCs. Description: Globin and hemoglobin analysis by HPLC on day 18 of differentiation (Example 5). In kind it is cell-based, human. Conditions: T107 RNP+AAV.310 alone or combined with the inhibitor. On the procedure: Following editing, cells were differentiated to erythrocytes.
Additionally, on day 18 post-editing, expression of globin monomers was assessed in differentiated cells by HPLC as described in Example 3. […] Accordingly, the editing was sufficient to both introduce the SCD mutation in HBB and result in expression of sickle globin.
Furthermore, production of hemoglobin tetramers was also evaluated by HPLC. The analysis included quantification of HbS tetramer containing sickle-globin (α2β(E6V)2), HbF tetramer (α2γ2), HbA (α2β2), and HbA2 (α2δ2) produced by edited cells. […] Thus, the editing was also sufficient to alter hemoglobin output following in vitro differentiation.

The test system of assay [3] is human HBB gene locus in CD34+ HSPCs. The assay can be described thus: In vitro editing of HBB in CD34+ HSPCs with RNP and AAV donor template; HDR and INDELs by NGS (Example 1). In kind it is cell-based. Conditions: T107 RNP+AAV.320 with i53 (1 μg mRNA). Here is the method:
Gene-editing of HBB was evaluated in CD34+ HSPCs. […] HSPCs were maintained in culture media containing IL-3 and were incubated at 37° C. under atmospheric conditions containing 5% carbon dioxide and 4% oxygen. […] To perform gene-editing, the cells were electroporated with RNP. Specifically, 1×10^6 cells were electroporated using the Maxcyte HSC-3 program with RNP containing 20 μg SpCas9 and 20 μg sgRNA (T107 or R02). AAV donor template was administered to cells prior to electroporation. Specifically, the cells were incubated with AAV (AAV.320 or AAV.323 respectively) at a dose of 10,000 MOI for one hour prior to electroporation.
Given efficiency of HDR repair is poor due to competition with other repair pathways (e.g., the NHEJ pathway), particularly in non-dividing or slowly dividing cells such as HSPCs, editing was also evaluated following treatment with molecules that inhibit targets in the NHEJ pathway, including 53BP1 and DNA-PK. […]
To evaluate HDR editing efficiency, genomic DNA was harvested from treated cells, and the frequency of the HBB allele encoding the expected gene edit (i.e., GAA encoding glutamate at position 6 downstream the HBB start codon (“E6”) for cells transduced with AAV.323 and silent mutations for cells transduced with AAV.320) was evaluated using a PCR amplification-based assay followed by next-generating sequencing (NGS). […]

Another assay relates to HBB locus in CD34+ HSPCs. Description: In vitro editing of HBB in CD34+ HSPCs with T223 RNP and AAV.321 (Example 9). Conditions: T223 RNP+AAV.321-edited cells treated with i53. Type of assay: cell-based, human. On the procedure: Gene-editing of HBB was evaluated using CD34+ HSPCs that were derived and maintained in culture as described in Example 1. HSPCs were subjected to gene-editing following two days of culture. To perform gene-editing, the cells were electroporated with RNP. Specifically, 5×10^6 cells were electroporated using the Maxcyte Buffer/HSC-3 program with RNP containing 20 μg SpCas9 and 20 μg sgRNA (T223 or R02). Cells were transfected with corresponding AAV donor template at a dose of 10,000 MOI (AAV.321 or AAV.323 respectively). The effect of 53BP1 inhibition and DNA-PK inhibitions on editing with RNP+AAV was also evaluated by treating cells with […] or 1 μg i53 mRNA+1 μM Nu7441.
The cells were cultured for two days following electroporation and prior to evaluation of editing efficiency. To evaluate editing efficiency, genomic DNA was harvested from edited cells, and frequency of HDR and frequency of INDELs at the predicted gRNA cut site was evaluated as described in Example 1.

On to `[2H]c1nc(C)nc([2H])c1-c1cc(NC[C@@H](C)c2cccc3c(C(=O)NC)ccnc23)ncn1` [Compound 984], for which the “frequency of gene-edits (HDR) in CD34+ HSPCs prior to transplantation” value in assay [1] is on record as “approximately 45%”. Also, in the assay on NBSGW mice, the “frequency of gene-edits in mouse bone marrow vs CD34+ HSPCs prior to transplantation” value is listed as “comparable”. For the same molecule, in assay [2], the “frequency of INDELs at the T107 cut site compared to cells edited with T107 RNP+AAV.310 only” value is listed as “decreased” and the “level of HDR repair compared to cells edited with T107 RNP+AAV.310 only” value is listed as “increased”. In the assay on CD34+ HSPCs, the “HbA production compared to control cells” value is “decreased”, the “HbS production compared to control cells” value is listed as “increased” and the “expression of sickle-globin compared to control cells” value was “increased”.
Turning to “i53: polypeptide inhibitor of 53BP1 (SEQ ID NO: 11), introduced as an mRNA-encoded protein (ORF SEQ ID NO: 10)”, in assay [3], the “HDR efficiency (donor-template-encoded gene-edit in HBB)” value is reported as “approximately 25%”. Further, in the assay on CD34+ HSPCs, the “HbA production compared to control cells” value is on record as “decreased”, the “HbS production compared to control cells” value is given as “increased” and the “expression of sickle-globin compared to control cells” value is “increased”. Moreover, in the assay on HBB locus in CD34+ HSPCs, the “frequency of INDELs at the T223 cut site” value was “reduced” and the “frequency of genomic DNA incorporating the E6V gene-edit” value was “improved”.
